Assay results as given in patent publication US20250000822A1, “USE OF 2-HYDROXYBENZYLAMINE FOR THE TREATMENT OF SYSTEMIC LUPUS” (Vanderbilt University, priority 2019, published 2025).
Entries after “also recorded” stand apart in the source; their conditions may differ.

What was measured:
B6.SLE123 mice [1] = assay: SLE-associated renal injury and dysfunction, B6.SLE123 mice; format: in vivo
Method: Kidneys were sectioned and stained with […] silver stain; (A) representative glomeruli are presented. (B) Mice received IP injection of 4% normal saline at 10% of body weight and urine output was measured over 4 hours. (C) Urine albumin/creatine ratio. (D) Urinary NGAL. (n=6-8, *P<0.05, **P<0.01, ****P<0.0001).
The present inventors have also shown that 2-HOBA protects against SLE-associated renal injury and dysfunction. […] To assess renal function, 2-HOBA treated and untreated B6.SLE123 animals were injected with 4% normal saline at a volume equal to 10% of their body weight, and urine volume was measured over 4 hours.

B6.SLE123 mice [2] = assay: plasma cell expansion and antibody titers, B6.SLE123 mice; format: in vivo
Method: (A) Representative FACS plots displaying CD138^+ and intracellular Igκ-light-chain^+ plasma cells from bone marrow. Quantitation of plasma cells as a percentage of CD45 cells are represented for (B) bone marrow. (C) Anti-dsDNA IgG antibody and (D) total plasma IgG at 1:100K dilution were analyzed by ELISA. (n=5-7, *P<0.05, **P<0.01, ***P<0.001, ****P<0.0001).
The present inventors have also shown that 2-HOBA reduces bone marrow plasma cell expansion and anti-dsDNA antibody titers. SLE is associated with an expansion of plasma cells and an amplification of auto-antibodies. Autoreactive plasma cells are believed to play an important role in SLE by generating antibodies that lead to the creation of immune complexes which deposit in peripheral tissues. Flow cytometry was performed to identify CD138^+/Igκ-light-chain^+ plasma cells in spleen and bone marrow cell preparations from B6.SLE123 animals treated with vehicle or 2-HOBA. B6.SLE123 animals had significant accumulation of spleen and bone marrow plasma cells which were attenuated by 2-HOBA (FIG. 7A-C).

healthy human volunteers [3] = details: 500 and 750 mg TID for 2 weeks; cited from earlier work
healthy human volunteers [4] = details: single doses up to 825 mg (highest dose tested); cited from earlier work
B6.SLE123 mice [5] = assay: SLE-associated renal inflammation, B6.SLE123 mice; format: in vivo
Method: Single cell suspensions were prepared from freshly isolated mouse kidney via enzymatic digestion and mechanical dissociation. Live cell singlets were analyzed. Representative FACS plots are presented for (A) CD3^+ T-cells. Quantitation of (B) CD45^+ leukocytes and (C) CD3^+ T-cells are represented. (n=6-8, *P<0.05, **P<0.01).
The present inventors have also shown that 2-HOBA reduces SLE-associated inflammation.

[6] = reaction of 2-HOBA with isoLGs (isoLG scavenging)
Description: (§1) 2-HOBA, for example, is naturally found in buckwheat seeds. 2-HOBA is highly reactive and found to react with isoLGs at a rate more than 3 orders of magnitude faster than the e-amine of lysine (see FIG. 3). By selectively reacting with isoLGs, 2-HOBA inhibits isoLG:protein adduct formation and subsequent isoLG-induced cell dysfunction.

B6.SLE123 mice [7] = assay: isoLG adduct accumulation in monocytes and dendritic cells of SLE-prone mice (flow cytometry); format: in vivo; details: B6.SLE123 mice treated from 7 weeks of age, analysed at 32 weeks
Method: Quantitation of isoLG-adduct containing cells in (C) splenic DCs (D) circulating monocytes. (n=5-9, *P<0.05, **P<0.01, ***P<0.001, ****P<0.0001).
The present inventors have also shown that 2-HOBA reduces isoLG accumulation in monocytes and dendritic cells (DCs) of SLE-prone mice. B6.SLE123 mice were treated with 2-HOBA starting at 7 weeks of age (prior to disease presentation). At 32 weeks of age, peripheral blood, spleen, and bone marrow cells were harvested from B6.SLE123 and control (C57BL/6) mice. Flow cytometry was used to detect the surface markers CD11c, IAb, CD11b, F4/80, and Ly6c and isoLG adducts.

HepG2 cells = assay: protection of HepG2 cells against H2O2-induced cytotoxicity; format: cell-based
Description: as §1

[8] = in vitro, in animals, or in humans, to date; cited from earlier work
[9] = SLE-prone mice, kidney sections
[10] = B6.SLE123, CD138+/Igκ-light-chain+ cells, flow cytometry

SMILES: NCc1ccccc1O [2-HOBA, 2-hydroxybenzylamine]
- albumin to creatinine ratio (B6.SLE123 mice [1]; B6.SLE123 mice, urine): improved
- NGAL excretion (B6.SLE123 mice [1]; B6.SLE123 mice, urine, marker of tubular injury): improved
- urine volume (B6.SLE123 mice [1]; B6.SLE123 mice, over 4 hours after injection of 4% normal saline at 10% of body weight): improved
- glomerular hypercellularity (B6.SLE123 mice [1]; [9]): markedly improved
- immune complex deposition (B6.SLE123 mice [1]; [9]): markedly improved
- renal injury and dysfunction (B6.SLE123 mice [1]; mouse model of SLE (FIG. 6 legend)): attenuates
- plasma anti-dsDNA antibody titers (B6.SLE123 mice [2]; B6.SLE123, ELISA): reduces; also recorded: markedly lower
- total IgG antibody titers (B6.SLE123 mice [2]; B6.SLE123, plasma, ELISA): reduces; also recorded: markedly lower
- accumulation of bone marrow plasma cells (B6.SLE123 mice [2]; [10]): reduces; also recorded: attenuated
- accumulation of spleen plasma cells (B6.SLE123 mice [2]; [10]): attenuated
- accumulation of 2-HOBA and its primary metabolite (healthy human volunteers [3]): low
- serious adverse events (healthy human volunteers [3]): no serious adverse events
- tolerability of multiple doses (healthy human volunteers [3]): well tolerated
- safety and tolerability of single doses (healthy human volunteers [4]): safe and well-tolerated
- renal inflammation (B6.SLE123 mice [5]): markedly reduced
- renal CD3+ T-cells (B6.SLE123 mice [5]; kidney, flow cytometry): reduction
- renal CD45+ cells (B6.SLE123 mice [5]; kidney, flow cytometry): reduction
- isoLG scavenging [6]: potent isoLG scavengers
- rate of reaction with isoLGs, faster than the e-amine of lysine ([6]; relative to e-amine of lysine): more than 3 orders of magnitude
- isoLG accumulation in monocytes (B6.SLE123 mice [7]; peripheral blood monocytes): efficient scavenging; also recorded: significantly attenuated
- isoLG accumulation in DCs (B6.SLE123 mice [7]; splenic dendritic cells): efficient scavenging; also recorded: significantly attenuated
- protection against H2O2-induced cytotoxicity (HepG2 cells): dramatically protected
- serious adverse effects or potential issues observed [8]: no serious adverse effects or potential issues
